Some results are limits rather than exact numbers.

The nature of one data set: Biodistribution in rats. To be noted: rat; for in vivo metabolic defluorination (bone activity): 5 to 60 min p.i.; for blood uptake / bone uptake / brain uptake / fat uptake / kidney uptake / liver uptake / muscle uptake: iv, mean ± SD, n = 4. The class given is in vivo, male Sprague-Dawley rats.
Another data set deals with PDE10A (Rattus norvegicus, UniProt Q9QYJ6). To be noted: by 30 min p.i.
Chain of PDE10A (Q9QYJ6 whole entry): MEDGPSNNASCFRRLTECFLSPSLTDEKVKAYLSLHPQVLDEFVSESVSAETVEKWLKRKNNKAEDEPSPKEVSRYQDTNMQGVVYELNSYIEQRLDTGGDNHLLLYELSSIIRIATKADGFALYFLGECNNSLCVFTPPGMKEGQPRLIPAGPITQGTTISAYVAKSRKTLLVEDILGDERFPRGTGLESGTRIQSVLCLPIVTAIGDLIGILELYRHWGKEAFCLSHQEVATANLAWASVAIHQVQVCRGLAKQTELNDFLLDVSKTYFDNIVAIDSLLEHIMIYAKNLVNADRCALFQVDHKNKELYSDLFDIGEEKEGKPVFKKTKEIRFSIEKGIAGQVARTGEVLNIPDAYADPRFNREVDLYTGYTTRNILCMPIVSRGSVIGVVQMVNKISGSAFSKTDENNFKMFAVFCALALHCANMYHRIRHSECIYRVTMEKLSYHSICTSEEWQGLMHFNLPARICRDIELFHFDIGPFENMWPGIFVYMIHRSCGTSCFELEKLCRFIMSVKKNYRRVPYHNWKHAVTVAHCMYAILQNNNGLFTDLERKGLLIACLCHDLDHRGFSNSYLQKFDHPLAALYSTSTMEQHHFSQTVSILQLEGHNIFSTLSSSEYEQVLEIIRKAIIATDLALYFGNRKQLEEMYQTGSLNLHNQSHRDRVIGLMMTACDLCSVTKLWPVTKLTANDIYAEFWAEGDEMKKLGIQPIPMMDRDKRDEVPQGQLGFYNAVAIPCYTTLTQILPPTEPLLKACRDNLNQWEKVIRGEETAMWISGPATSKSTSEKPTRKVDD

For the compound `Cn1cc(-c2ccncc2)c(-c2ccc(OCc3cc(CF)c4ccccc4n3)cc2)n1` [Compound 18b, 4-(Fluoromethyl)-2-((4-(1-methyl-4-(pyridin-4-yl)-1H-pyrazol-3-yl)phenoxy)methyl) quinoline], in the data set “Biodistribution in rats”, the “in vivo metabolic defluorination (bone activity)” value (from here on “in vivo metabolic defluorination”) was “undergo in vivo metabolic defluorination in rodents”.
`Cn1cc(-c2ccncc2)c(-c2ccc(OCc3cc(OCCOCCOCC[18F])c4ccccc4n3)cc2)n1` [[^18F]18g]: the “in vivo metabolic defluorination” value in “Biodistribution in rats” is on record as “appeared more stable to in vivo defluorination”. In “Biodistribution in rats” (5 min p.i.), the blood uptake is 0.699 ± 0.090 %ID/g, the bone uptake is 0.487 ± 0.044 %ID/g, the brain uptake turned out to be 0.353 ± 0.052 %ID/g and the fat uptake is on record as 0.225 ± 0.086 %ID/g. In “Biodistribution in rats” (5 min p.i.), this compound yielded a kidney uptake of 5.969 ± 0.744 %ID/g, a liver uptake of 4.74 ± 1.10 %ID/g and a muscle uptake of 0.419 ± 0.090 %ID/g. In the data set “Biodistribution in rats” (30 min p.i.), this compound returned a blood uptake of 0.771 ± 0.061 %ID/g, a bone uptake of 0.441 ± 0.049 %ID/g, a brain uptake of 0.509 ± 0.038 %ID/g and a fat uptake of 0.254 ± 0.051 %ID/g. In addition, in the data set “Biodistribution in rats” (30 min p.i.), the kidney uptake is 1.793 ± 0.291 %ID/g, the liver uptake was found to be 1.53 ± 0.49 %ID/g and the muscle uptake is on record as 0.488 ± 0.086 %ID/g. For the same compound, in the data set “Biodistribution in rats” (60 min p.i.), the blood uptake is 0.646 ± 0.045 %ID/g, the bone uptake came to 0.490 ± 0.035 %ID/g, the brain uptake is reported as 0.421 ± 0.028 %ID/g and the fat uptake is listed as 0.123 ± 0.021 %ID/g. In the data set “Biodistribution in rats” (60 min p.i.), the kidney uptake was determined as 1.037 ± 0.170 %ID/g, the liver uptake is 0.527 ± 0.068 %ID/g and the muscle uptake is 0.379 ± 0.027 %ID/g.
As for `Cn1cc(-c2ccncc2)c(-c2ccc(OCc3cc(CCCF)c4ccccc4n3)cc2)n1` [Compound 18c, 4-(3-Fluoropropyl)-2-((4-(1-methyl-4-(pyridin-4-yl)-1H-pyrazol-3-yl)phenoxy)methyl) quinoline], the “in vivo metabolic defluorination” value in “Biodistribution in rats” was “undergo in vivo metabolic defluorination in rodents”.
Turning to `Cn1cc(-c2ccncc2)c(-c2ccc(OCc3cc(CCC[18F])c4ccccc4n3)cc2)n1` [[^18F]18c, 4-(3-(Fluoro-^18F)propyl)-2-((4-(1-methyl-4-(pyridin-4-yl)-1H-pyrazol-3-yl)phenoxy)methyl) quinoline], the “ratio of activity in the striatum versus nontarget brain regions” value (shortened to “ratio of activity”) on PDE10A is > 2 fold. Further, in “Biodistribution in rats” (5 min p.i.), the blood uptake is 0.459 ± 0.049 %ID/g, the bone uptake is 0.222 ± 0.014 %ID/g, the brain uptake turned out to be 0.114 ± 0.015 %ID/g and the fat uptake came out at 0.220 ± 0.100 %ID/g. For the same compound, in the data set “Biodistribution in rats” (5 min p.i.), the kidney uptake was 2.471 ± 0.487 %ID/g, the liver uptake is on record as 9.99 ± 1.27 %ID/g and the muscle uptake is recorded as 0.223 ± 0.067 %ID/g. In “Biodistribution in rats” (30 min p.i.), this compound had a bone uptake of 1.418 ± 0.182 %ID/g, a brain uptake of 0.046 ± 0.006 %ID/g, a fat uptake of 0.491 ± 0.035 %ID/g and a kidney uptake of 1.364 ± 0.077 %ID/g. In the data set “Biodistribution in rats” (30 min p.i.), the liver uptake was 5.67 ± 0.73 %ID/g and the muscle uptake worked out at 0.178 ± 0.016 %ID/g. For the same compound, in the data set “Biodistribution in rats” (60 min p.i.), the bone uptake came out at 2.037 ± 0.303 %ID/g, the brain uptake was determined as 0.026 ± 0.005 %ID/g, the fat uptake was determined as 0.368 ± 0.077 %ID/g and the kidney uptake was 1.216 ± 0.180 %ID/g. In the data set “Biodistribution in rats” (60 min p.i.), this compound registered a liver uptake of 6.79 ± 2.49 %ID/g and a muscle uptake of 0.103 ± 0.030 %ID/g.
`Cn1cc(-c2ccncc2)c(-c2ccc(OCc3cc(COCC[18F])c4ccccc4n3)cc2)n1` [[^18F]18e, 4-((2-(Fluoro-^18F)ethoxy)methyl)-2-((4-(1-methyl-4-(pyridin-4-yl)-1H-pyrazol-3-yl)phenoxy)methyl)quinoline]: the “in vivo metabolic defluorination” value in the data set “Biodistribution in rats” is “appeared more stable to in vivo defluorination”. In “Biodistribution in rats” (5 min p.i.), this compound yielded a blood uptake of 0.440 ± 0.038 %ID/g, a bone uptake of 0.133 ± 0.028 %ID/g, a brain uptake of 0.213 ± 0.039 %ID/g and a fat uptake of 0.139 ± 0.031 %ID/g. In “Biodistribution in rats” (5 min p.i.), this compound had a kidney uptake of 0.981 ± 0.163 %ID/g, a liver uptake of 3.99 ± 0.82 %ID/g and a muscle uptake of 0.155 ± 0.040 %ID/g. In the data set “Biodistribution in rats” (30 min p.i.), this compound gave a blood uptake of 0.424 ± 0.074 %ID/g, a bone uptake of 0.170 ± 0.030 %ID/g, a brain uptake of 0.353 ± 0.021 %ID/g and a fat uptake of 0.139 ± 0.037 %ID/g. In addition, in “Biodistribution in rats” (30 min p.i.), the kidney uptake came out at 0.632 ± 0.123 %ID/g, the liver uptake is given as 0.987 ± 0.038 %ID/g and the muscle uptake came out at 0.265 ± 0.117 %ID/g. In the data set “Biodistribution in rats” (60 min p.i.), this compound came in with a blood uptake of 0.401 ± 0.029 %ID/g, a bone uptake of 0.337 ± 0.072 %ID/g, a brain uptake of 0.343 ± 0.033 %ID/g and a fat uptake of 0.066 ± 0.018 %ID/g. In “Biodistribution in rats” (60 min p.i.), this compound returned a kidney uptake of 0.485 ± 0.045 %ID/g, a liver uptake of 0.554 ± 0.064 %ID/g and a muscle uptake of 0.228 ± 0.058 %ID/g.
In the case of `Cn1cc(-c2ccncc2)c(-c2ccc(OCc3cc([18F])c4ccccc4n3)cc2)n1` [[^18F]18a, 4-(Fluoro-^18F)-2-((4-(1-methyl-4-(pyridin-4-yl)-1H-pyrazol-3-yl)phenoxy)methyl)quinoline], the “ratio of activity” value at PDE10A is > 2 fold. Moreover, in “Biodistribution in rats” (5 min p.i.), the blood uptake was 0.353 ± 0.063 %ID/g, the bone uptake came out at 0.522 ± 0.116 %ID/g, the brain uptake came out at 0.410 ± 0.063 %ID/g and the fat uptake turned out to be 0.404 ± 0.102 %ID/g. Moreover, in “Biodistribution in rats” (5 min p.i.), the kidney uptake is listed as 1.887 ± 0.296 %ID/g, the liver uptake worked out at 6.87 ± 1.27 %ID/g and the muscle uptake is 0.339 ± 0.053 %ID/g. For the same compound, in “Biodistribution in rats” (30 min p.i.), the blood uptake is given as 0.376 ± 0.033 %ID/g, the bone uptake came out at 4.035 ± 0.153 %ID/g, the brain uptake was 0.191 ± 0.036 %ID/g and the fat uptake is reported as 0.576 ± 0.154 %ID/g. In “Biodistribution in rats” (30 min p.i.), this compound returned a kidney uptake of 1.034 ± 0.131 %ID/g, a liver uptake of 3.00 ± 0.91 %ID/g and a muscle uptake of 0.236 ± 0.019 %ID/g. Also, in the data set “Biodistribution in rats” (60 min p.i.), the blood uptake turned out to be 0.150 ± 0.021 %ID/g, the bone uptake was 6.300 ± 0.314 %ID/g, the brain uptake amounted to 0.125 ± 0.009 %ID/g and the fat uptake stood at 0.477 ± 0.099 %ID/g. In “Biodistribution in rats” (60 min p.i.), this compound came in with a kidney uptake of 0.533 ± 0.119 %ID/g, a liver uptake of 1.60 ± 0.87 %ID/g and a muscle uptake of 0.092 ± 0.010 %ID/g.
With `Cn1cc(-c2ccncc2)c(-c2ccc(OCc3cc(F)c4ccccc4n3)cc2)n1` [Compound 18a, 4-Fluoro-2-((4-(1-methyl-4-(pyridin-4-yl)-1H-pyrazol-3-yl)-phenoxy)methyl)quinoline], the “in vivo metabolic defluorination” value in the data set “Biodistribution in rats” is given as “undergo in vivo metabolic defluorination in rodents”.
Turning to `Cn1cc(-c2ccncc2)c(-c2ccc(OCc3cc(C[18F])c4ccccc4n3)cc2)n1` [[^18F]18b, 4-((Fluoro-^18F)methyl)-2-((4-(1-methyl-4-(pyridin-4-yl)-1H-pyrazol-3-yl)phenoxy)methyl) quinoline], the “ratio of activity” value at PDE10A is listed as > 2 fold. Moreover, in “Biodistribution in rats” (5 min p.i.), the blood uptake came out at 0.471 ± 0.040 %ID/g, the bone uptake was 0.421 ± 0.063 %ID/g, the brain uptake came out at 0.128 ± 0.012 %ID/g and the fat uptake is 0.343 ± 0.153 %ID/g. For the same compound, in the data set “Biodistribution in rats” (5 min p.i.), the kidney uptake is recorded as 1.799 ± 0.207 %ID/g, the liver uptake turned out to be 10.16 ± 1.86 %ID/g and the muscle uptake amounted to 0.227 ± 0.042 %ID/g. In the data set “Biodistribution in rats” (30 min p.i.), this compound came in with a blood uptake of 0.416 ± 0.062 %ID/g, a bone uptake of 4.055 ± 1.305 %ID/g, a brain uptake of 0.094 ± 0.023 %ID/g and a fat uptake of 0.352 ± 0.081 %ID/g. Besides, in “Biodistribution in rats” (30 min p.i.), the kidney uptake is given as 1.351 ± 0.216 %ID/g, the liver uptake amounted to 4.01 ± 1.34 %ID/g and the muscle uptake is on record as 0.174 ± 0.042 %ID/g. In addition, in the data set “Biodistribution in rats” (60 min p.i.), the blood uptake was 0.201 ± 0.026 %ID/g, the bone uptake is reported as 5.620 ± 1.132 %ID/g, the brain uptake is listed as 0.069 ± 0.008 %ID/g and the fat uptake turned out to be 0.222 ± 0.029 %ID/g. Also, in the data set “Biodistribution in rats” (60 min p.i.), the kidney uptake came to 0.573 ± 0.134 %ID/g, the liver uptake is listed as 3.10 ± 0.61 %ID/g and the muscle uptake came out at 0.107 ± 0.032 %ID/g.
